# System: 292921-168-R-J2-PDC KRAS tumor spheroid viability
# Experiment: Anticancer human tumor 292921-168-R-J2-PDC patient-derived pancreatic carcinoma cell line growth inhibition [KRAS2]
# Settings: spheroids with HUVEC and MSC; for IC50: curve of first compound; for viability, T/C: stronger effect = lower value
# In short: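 KRAS-mutant tumor cells were grown as spheroids with HUVEC endothelial cells and human MSCs as stroma. Targeted agents were tested alone and with KRAS pathway inhibitors. Doses started at or near clinical Cmax, or 10 microM, descending half-log.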
# [1] = second compound 0.1 µM, first compound 0.0316 µM
# [2] = second compound 0.1 µM, first compound 0.1 µM
# [3] = second compound 0.1 µM, first compound 0.316 µM
# [4] = second compound 0.1 µM, first compound 1 µM
# [5] = second compound 0.1 µM, first compound 3.16 µM
# [6] = second compound 0.1 µM, first compound 10 µM
# [7] = second compound 0.316 µM, first compound 0.0316 µM
# [8] = second compound 0.316 µM, first compound 0.1 µM
# [9] = second compound 0.316 µM, first compound 0.316 µM
# [10] = second compound 0.316 µM, first compound 1 µM
# [11] = second compound 0.316 µM, first compound 3.16 µM
# [12] = second compound 0.316 µM, first compound 10 µM
# [13] = second compound 1 µM, first compound 0.0316 µM
# [14] = second compound 1 µM, first compound 0.1 µM
# [15] = second compound 1 µM, first compound 0.316 µM
# [16] = second compound 1 µM, first compound 1 µM
# [17] = second compound 1 µM, first compound 3.16 µM
# [18] = second compound 1 µM, first compound 10 µM
# [19] = second compound 3.16 µM, first compound 0.0316 µM
# [20] = second compound 3.16 µM, first compound 0.1 µM
# [21] = second compound 3.16 µM, first compound 0.316 µM
# [22] = second compound 3.16 µM, first compound 1 µM
# [23] = second compound 3.16 µM, first compound 3.16 µM
# [24] = second compound 3.16 µM, first compound 10 µM
# [25] = second compound 10 µM, first compound 0.0316 µM
# [26] = second compound 10 µM, first compound 0.1 µM
# [27] = second compound 10 µM, first compound 0.316 µM
# [28] = second compound 10 µM, first compound 1 µM
# [29] = second compound 10 µM, first compound 3.16 µM
# [30] = second compound 10 µM, first compound 10 µM
# [31] = second compound 0.1 µM, first compound 0.000316 µM
# [32] = second compound 0.1 µM, first compound 0.001 µM
# [33] = second compound 0.1 µM, first compound 0.00316 µM
# [34] = second compound 0.1 µM, first compound 0.01 µM
# [35] = second compound 0.316 µM, first compound 0.000316 µM
# [36] = second compound 0.316 µM, first compound 0.001 µM
# [37] = second compound 0.316 µM, first compound 0.00316 µM
# [38] = second compound 0.316 µM, first compound 0.01 µM
# [39] = second compound 1 µM, first compound 0.000316 µM
# [40] = second compound 1 µM, first compound 0.001 µM
# [41] = second compound 1 µM, first compound 0.00316 µM
# [42] = second compound 1 µM, first compound 0.01 µM
# [43] = second compound 3.16 µM, first compound 0.000316 µM
# [44] = second compound 3.16 µM, first compound 0.001 µM
# [45] = second compound 3.16 µM, first compound 0.00316 µM
# [46] = second compound 3.16 µM, first compound 0.01 µM
# [47] = second compound 10 µM, first compound 0.000316 µM
# [48] = second compound 10 µM, first compound 0.001 µM
# [49] = second compound 10 µM, first compound 0.00316 µM
# [50] = second compound 10 µM, first compound 0.01 µM
# 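Note: drug exposure lasted seven days after spheroids formed for three days.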
# 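Throughout, for viability, T/C: percent of DMSO vehicle control viability which is 100%.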
smiles,measurement,setting,value
COc1cc(Nc2ncc3c(n2)-c2ccc(Cl)cc2C(c2c(F)cccc2OC)=NC3)ccc1C(=O)O + COc1cc2nc(C)nc(NC(C)c3cc(N)cc(C(F)(F)F)c3)c2cc1OC1CCOC1,IC50,second compound 0.1 µM,< 31.6 nM
same,IC50,second compound 0.316 µM,< 31.6 nM
same,IC50,second compound 1 µM,< 31.6 nM
same,IC50,second compound 3.16 µM,< 31.6 nM
same,IC50,second compound 10 µM,< 31.6 nM
same,"viability, T/C",[1],28.8%
same,"viability, T/C",[2],23.7%
same,"viability, T/C",[3],27.9%
same,"viability, T/C",[4],25.8%
same,"viability, T/C",[5],19.4%
same,"viability, T/C",[6],16.9%
same,"viability, T/C",[7],26.3%
same,"viability, T/C",[8],21.9%
same,"viability, T/C",[9],27.4%
same,"viability, T/C",[10],22.1%
same,"viability, T/C",[11],22.3%
same,"viability, T/C",[12],14.9%
same,"viability, T/C",[13],25%
same,"viability, T/C",[14],24.5%
same,"viability, T/C",[15],25.6%
same,"viability, T/C",[16],23.4%
same,"viability, T/C",[17],18.5%
same,"viability, T/C",[18],13.6%
same,"viability, T/C",[19],23.8%
same,"viability, T/C",[20],20.5%
same,"viability, T/C",[21],20.8%
same,"viability, T/C",[22],22.1%
same,"viability, T/C",[23],18.5%
same,"viability, T/C",[24],14%
same,"viability, T/C",[25],15.1%
same,"viability, T/C",[26],11.2%
same,"viability, T/C",[27],11.6%
same,"viability, T/C",[28],11.9%
same,"viability, T/C",[29],13.6%
same,"viability, T/C",[30],12.3%
Cn1ncnc1[C@H]1c2n[nH]c(=O)c3cc(F)cc(c23)N[C@@H]1c1ccc(F)cc1 + CC1OCC2(CCN(c3cnc(Sc4ccnc(N)c4Cl)c(N)n3)CC2)C1N,IC50,second compound 0.1 µM,> 100 nM
same,IC50,second compound 0.316 µM,> 100 nM
same,IC50,second compound 1 µM,0.634 nM
same,IC50,second compound 3.16 µM,< 0.316 nM
same,IC50,second compound 10 µM,< 0.316 nM
same,"viability, T/C",[31],84.8%
same,"viability, T/C",[32],78.6%
same,"viability, T/C",[33],82.5%
same,"viability, T/C",[34],76.4%
same,"viability, T/C",[1],66.3%
same,"viability, T/C",[2],58.2%
same,"viability, T/C",[35],66.1%
same,"viability, T/C",[36],60.9%
same,"viability, T/C",[37],65%
same,"viability, T/C",[38],56%
same,"viability, T/C",[7],59.4%
same,"viability, T/C",[8],51.9%
same,"viability, T/C",[39],48.7%
same,"viability, T/C",[40],51.7%
same,"viability, T/C",[41],49.2%
same,"viability, T/C",[42],44.4%
same,"viability, T/C",[13],39.2%
same,"viability, T/C",[14],39.1%
same,"viability, T/C",[43],40.8%
same,"viability, T/C",[44],39%
same,"viability, T/C",[45],37.4%
same,"viability, T/C",[46],36.2%
same,"viability, T/C",[19],33.4%
same,"viability, T/C",[20],30.8%
same,"viability, T/C",[47],34.5%
same,"viability, T/C",[48],34.5%
same,"viability, T/C",[49],32%
same,"viability, T/C",[50],30.6%
same,"viability, T/C",[25],29.5%
same,"viability, T/C",[26],26.5%
CC(=O)Nc1cccc(-n2c(=O)n(C3CC3)c(=O)c3c(Nc4ccc(I)cc4F)n(C)c(=O)c(C)c32)c1 + COc1cc2nc(C)nc(NC(C)c3cc(N)cc(C(F)(F)F)c3)c2cc1OC1CCOC1,IC50,second compound 0.1 µM,0.23 nM
same,IC50,second compound 0.316 µM,0.165 nM
same,IC50,second compound 1 µM,0.119 nM
same,IC50,second compound 3.16 µM,0.105 nM
same,IC50,second compound 10 µM,< 0.1 nM
same,"viability, T/C","second compound 0.1 µM, first compound 0.0001 µM",72.3%
same,"viability, T/C",[31],40.4%
same,"viability, T/C",[32],25.4%
same,"viability, T/C",[33],16.1%
same,"viability, T/C",[34],11.3%
same,"viability, T/C",[1],8.07%
same,"viability, T/C","second compound 0.316 µM, first compound 0.0001 µM",57.4%
same,"viability, T/C",[35],40.9%
same,"viability, T/C",[36],22%
same,"viability, T/C",[37],15.7%
same,"viability, T/C",[38],12%
same,"viability, T/C",[7],8.27%
same,"viability, T/C","second compound 1 µM, first compound 0.0001 µM",53.6%
same,"viability, T/C",[39],31.5%
same,"viability, T/C",[40],20.9%
same,"viability, T/C",[41],13.8%
same,"viability, T/C",[42],11.5%
same,"viability, T/C",[13],8.01%
same,"viability, T/C","second compound 3.16 µM, first compound 0.0001 µM",51.5%
same,"viability, T/C",[43],29.2%
same,"viability, T/C",[44],19.1%
same,"viability, T/C",[45],12.4%
same,"viability, T/C",[46],10.3%
same,"viability, T/C",[19],8.26%
same,"viability, T/C","second compound 10 µM, first compound 0.0001 µM",18.4%
same,"viability, T/C",[47],14.6%
same,"viability, T/C",[48],15%
same,"viability, T/C",[49],11.9%
same,"viability, T/C",[50],8.42%
same,"viability, T/C",[25],8.34%
CC(C)NCC(C(=O)N1CCN(c2ncnc3c2C(C)CC3O)CC1)c1ccc(Cl)cc1 (stereo not given) + CNCc1ccccc1-c1csc(C(C)Nc2nc(C)nc3cc(OC)c(OC)cc23)c1,IC50,second compound 0.1 µM,7140 nM
same,IC50,second compound 0.316 µM,5150 nM
same,IC50,second compound 1 µM,597 nM
same,IC50,second compound 3.16 µM,< 31.6 nM
same,IC50,second compound 10 µM,< 31.6 nM
same,"viability, T/C",[1],80.5%
same,"viability, T/C",[2],88.9%
same,"viability, T/C",[3],74.1%
same,"viability, T/C",[4],77.3%
same,"viability, T/C",[5],67.8%
same,"viability, T/C",[6],42.5%
same,"viability, T/C",[7],76.9%
same,"viability, T/C",[8],70.6%
same,"viability, T/C",[9],65.1%
same,"viability, T/C",[10],65.4%
same,"viability, T/C",[11],62.6%
same,"viability, T/C",[12],35.6%
same,"viability, T/C",[13],59.9%
same,"viability, T/C",[14],55.4%
same,"viability, T/C",[15],49.5%
same,"viability, T/C",[16],46.7%
same,"viability, T/C",[17],42.2%
same,"viability, T/C",[18],22.9%
same,"viability, T/C",[19],0.1%
same,"viability, T/C",[20],0.09%
same,"viability, T/C",[21],0.37%
same,"viability, T/C",[22],0.1%
same,"viability, T/C",[23],0.07%
same,"viability, T/C",[24],0.36%
same,"viability, T/C",[25],0.09%
same,"viability, T/C",[26],0.08%
same,"viability, T/C",[27],0.25%
same,"viability, T/C",[28],0.36%
same,"viability, T/C",[29],0.09%
same,"viability, T/C",[30],0.3%
CC1COCCN1c1cc(-c2ccnn2C)c2ccnc(-c3ccn[nH]3)c2n1 (stereo not given) + C=CC(=O)N1CCN(c2nc(=O)n(-c3c(C)ccnc3C(C)C)c3nc(-c4c(O)cccc4F)c(F)cc23)C(C)C1,IC50,second compound 0.1 µM,< 10 nM
same,IC50,second compound 0.316 µM,< 10 nM
same,IC50,second compound 1 µM,< 10 nM
same,IC50,second compound 3.16 µM,< 10 nM
same,IC50,second compound 10 µM,< 10 nM
same,"viability, T/C",[34],41.9%
same,"viability, T/C",[1],19.9%
same,"viability, T/C",[2],15%
same,"viability, T/C",[3],13.6%
same,"viability, T/C",[4],16.1%
same,"viability, T/C",[5],18.3%
same,"viability, T/C",[38],32.8%
same,"viability, T/C",[7],20.1%
same,"viability, T/C",[8],13.5%
same,"viability, T/C",[9],14.6%
same,"viability, T/C",[10],17.5%
same,"viability, T/C",[11],20%
same,"viability, T/C",[42],30.3%
same,"viability, T/C",[13],16.8%
same,"viability, T/C",[14],12.9%
same,"viability, T/C",[15],15.5%
same,"viability, T/C",[16],18.7%
same,"viability, T/C",[17],23.2%
same,"viability, T/C",[46],17.1%
same,"viability, T/C",[19],12%
same,"viability, T/C",[20],12.4%
same,"viability, T/C",[21],16.8%
same,"viability, T/C",[22],21.8%
same,"viability, T/C",[23],24.1%
same,"viability, T/C",[50],12.1%
same,"viability, T/C",[25],12.7%
same,"viability, T/C",[26],14.7%
same,"viability, T/C",[27],19.1%
same,"viability, T/C",[28],21.3%
same,"viability, T/C",[29],24.8%

# Reference: PubChem BioAssay AID1963870 (Molecular Pharmacology Branch, DTP, NCI, 2024)
